# Measured values reported in patent publication US20150352076A1, “MOLECULARLY TARGETED COMBINATION DRUG FOR TUMOR TREATMENT AND PREVENTION” (ONCOLYS BIOPHARMA INC., priority 2013, published 2015).
# Residues, ends and D or L forms follow the SMILES beside them. *: point of attachment. Cbz = O=C(OCc1ccccc1)*; CH2F = FC*
# What was measured:
# Format in all cases: cell-based, human
# 786-O cells [1] = test: Analysis of apoptosis (sub-G1 fraction, flow cytometry); details: for effect of combined use with OBP-801 (summary statement): PI3K inhibitor used in combination with OBP-801, all five tested in 786-O cells; for induction of apoptosis (sub-G1), treatment alone: 48 hours and 72 hours
# Method: (§1) Cells were treated for 24 hours, 48 hours, or 72 hours at respective concentrations with or without addition of OBP-801 and/or with addition of LY294002, BKM120, GDC-0941, BEZ235, BYL719, or CH5132799, following which cells were harvested. The cells were permeabilized with 0.1% Triton-X100, following which the nuclei were stained with propidium iodide (PI). DNA content was measured using a FACSCalibur™ flow cytometer (Becton-Dickinson, Franklin Lakes, N.J., USA), and was analyzed with ModFit LT™ (Verity Software House, Topsham, Me., USA) and the Cell Quest™ software package (Becton-Dickinson).
# HEC-1-A cells [2] = test: Cell viability testing (Cell Counting Kit-8), cell growth inhibition
# Method: (§2) HEC-1-A cells derived from the human type 2 endometrial carcinoma cell line were cultured under conditions of 37° C. and 5% CO2 in RPMI medium to which 10% FBS had been added. Ishikawa human endometrial carcinoma cells were cultured under conditions of 37° C. and 5% CO2 in DMEM medium to which 10% FBS had been added. Human renal cell carcinoma cell line 786-O cells were cultured under conditions of 37° C. and 5% CO2 in RPMI 1640 medium to which 10% FBS, 2 mM glutamine, 100 U/mL penicillin, and 100 μg/mL streptomycin had been added. Human renal cell carcinoma cell line ACHN cells were cultured under conditions of 37° C. and 5% CO2 in DMEM medium to which 10% FBS, 4 mM glutamine, 100 U/mL penicillin, and 100 μg/mL streptomycin had been added. Human lymphoma cell line SU-DHL-6 cells were cultured under conditions of 37° C. and 5% CO2 in RPMI 1640 medium to which 10% FBS, 2 mM glutamine, 100 U/mL penicillin, and 100 μg/mL streptomycin had been added. Human breast cancer cell line MDA-MB-231 cells were cultured under conditions of 37° C. and 5% CO2 in RPMI 1640 medium to which 10% FBS, 2 mM glutamine, 100 U/mL penicillin, and 100 μg/mL streptomycin had been added.
# (§3) Cell viability was determined by carrying out measurements at a wavelength of 450 nm with a Viento multi-well spectrophotometer (DS Pharma Biomedical, Japan) using a Cell Counting Kit-8 (Dojindo Laboratories, Japan).
# phosphorylated Akt = test: Western blot analysis of phosphorylated Akt in HEC-1-A cells
# Method: (§4) Cells were lysed with lysis solution (50 mM Tris-HCl, 1% SDS, 2 μg/mL leupeptin, 2 μg/mL aprotinin, 0.1% 2-mercaptoethanol, and 1 mM phenylmethyl sulfonyl fluoride). Protein extract was loaded onto a polyacrylamide gel, subjected to electrophoresis, and transferred to a nitrocellulose membrane. Blots were blocked in blocking solution (5% skim milk/TBST) for 1 hour at room temperature, and incubated with appropriate primary antibody for 1 hour at room temperature. Signal was detected with an ECL™ Western Blot Analysis System (GE Healthcare, Piscataway, N.J., USA) or a Chemi-Lumi One chemiluminescent detection kit (Nacalai Tesque, Inc., Japan). […]
# HEC-1-A cells [3] = test: Colony formation assay
# Method: Cells were seeded at a density of 200 cells per well in 6-well plates. After culturing these for 24 hours, treatment was carried out for 48 hours at respective concentrations with or without addition of OBP-801 and/or with addition of LY294002. These were then cultured in growth medium for 10 days, and the number of viable colonies was counted.
# HEC-1-A cells [4] = test: Analysis of cell cycle and apoptosis (sub-G1 fraction, flow cytometry) with combination index; details: for effect on tumor cell cycle progression: used alone, OBP-801 4 nM, LY294002 12.5 μM, 24 hours to 72 hours
# Method: as §1
# Combination index (CI) was calculated using CalcuSyn software (Biosoft, UK) based on the method of Chou and Talalay. When CI<1, it is determined that the effect is synergistic; i.e., greater than the expected additive effect. When CI=1, it is determined that the effect is additive; when CI>1, it is determined that the effect is antagonistic.
# 786-O cells [5] = test: Cell viability testing, cell growth inhibition; details: used alone
# Method: as §2, §3
# ACHN cells = test: Cell viability testing, cell growth inhibition; details: used alone
# Method: as §2, §3
# Ishikawa cells = test: Cell viability testing, cell growth inhibition; details: used alone
# Method: as §2, §3
# [6] = tested on: caspase-3, caspase-8 and caspase-9; test: Western blot analysis of caspase-3, caspase-8 and caspase-9 cleavage in 786-O cells
# Method: as §4
# caspases, Bim = test: Western blot analysis of caspase cleavage and Bim in HEC-1-A cells; details: OBP-801 and LY294002 plus NAC
# Method: as §4
# 786-O cells [7] = test: Measurement of intracellular reactive oxygen species (CM-H2DCFDA); details: OBP-801 and LY294002 plus NAC
# Method: (§5) Cells were pretreated for 48 h with or without addition of OBP-801 and/or with addition of LY294002, and were thereafter treated with 10 μM 5-(and-6)-chloromethyl-2′,7′-dichlorodihydrofluorescein diacetate, acetyl ester (CM-H2DCFDA) (Invitrogen, Carlsbad, Calif., USA). After 30 minutes of incubation with 10 μM CM-H2DCFDA, cells were collected by trypsinization, were washed with PBS, and were analyzed by flow cytometry using FACSCalibur™ and CellQuest™ software (Becton-Dickinson).
# HEC-1-A cells [8] = test: as above; details: OBP-801 and LY294002 plus NAC
# Method: as §5
# survivin and XIAP = test: Western blot analysis of survivin and XIAP in 786-O cells; details: OBP-801 and LY294002 plus NAC
# Method: as §4
# acetylated histone H4 = test: Western blot analysis of acetylated histone H4 in HEC-1-A cells
# Method: as §4
compound,measurement,setting,value
Cn1c(=O)n(-c2ccc(C(C)(C)C#N)cc2)c2c3cc(-c4cnc5ccccc5c4)ccc3ncc21 [BEZ235],effect of combined use with OBP-801 (summary statement),786-O cells [1],synergistic tumor therapeutic/prophylactic effect
Nc1cc(C(F)(F)F)c(-c2cc(N3CCOCC3)nc(N3CCOCC3)n2)cn1 [BKM120],effect of combined use with OBP-801 (summary statement),786-O cells [1],synergistic tumor therapeutic/prophylactic effect
Cc1nc(NC(=O)N2CCC[C@H]2C(N)=O)sc1-c1ccnc(C(C)(C)C(F)(F)F)c1 [BYL719],effect of combined use with OBP-801 (summary statement),786-O cells [1],synergistic tumor therapeutic/prophylactic effect
CS(=O)(=O)N1CCc2c(-c3cnc(N)nc3)nc(N3CCOCC3)nc21 [CH5132799],effect of combined use with OBP-801 (summary statement),786-O cells [1],synergistic tumor therapeutic/prophylactic effect
CS(=O)(=O)N1CCN(Cc2cc3nc(-c4cccc5[nH]ncc45)nc(N4CCOCC4)c3s2)CC1 [GDC-0941],effect of combined use with OBP-801 (summary statement),786-O cells [1],synergistic tumor therapeutic/prophylactic effect
"O=c1cc(N2CCOCC2)oc2c(-c3ccccc3)cccc12 [LY294002, 2-(4-morpholinyl)-8-phenyl-4H-1-benzopyran-4-one]",concentrations causing inhibition of cell growth,HEC-1-A cells [2]; LY294002 alone,≥ 6.3 µM
same,concentrations causing decrease in phosphorylated Akt,phosphorylated Akt,≥ 6.3 µM
same,number of colonies formed,"HEC-1-A cells [3]; LY294002 alone, even at a concentration as high as 12.5 μM",no reduction in the number of colonies formed was observed
same,effect on tumor cell cycle progression,HEC-1-A cells [4],G1-phase arrest
same,growth of 786-O cells,786-O cells [5],suppressed growth of 786-O cells or ACHN cells in concentration-dependent fashion
same,growth of ACHN cells,ACHN cells,suppressed growth of 786-O cells or ACHN cells in concentration-dependent fashion
same,growth of Ishikawa cells,Ishikawa cells,suppressed growth of Ishikawa cells in concentration-dependent fashion
same,"induction of apoptosis (sub-G1), treatment alone",786-O cells [1]; 786-O cells,only slight induction of apoptosis
same,"cleavage of caspase-3, caspase-8 and caspase-9",[6],did not induce cleavage of the foregoing caspases
"CC(=O)N[C@@H](CS)C(=O)O [NAC, N-acetyl-L-cysteine]",effect on induction of apoptosis resulting from combined treatment,"HEC-1-A cells [4]; HEC-1-A cells, OBP-801 and LY294002 plus NAC",almost completely suppressed
same,effect on induction of apoptosis due to combined treatment,"786-O cells [1]; 786-O cells, OBP-801 and LY294002 plus NAC",blocked the induction of apoptosis
same,effect on caspase activation and Bim induction due to combined treatment,"caspases, Bim",inhibited the caspase activation and Bim induction
same,effect on induction of intracellular reactive oxygen species due to combined treatment,786-O cells [7],blocked the induction of intracellular reactive oxygen species
same,effect on increase of intracellular reactive oxygen species caused by combined treatment,HEC-1-A cells [8],blocked
same,effect on downregulation of survivin and XIAP by combined treatment,survivin and XIAP,restored
COC(=O)C[C@H](NC(=O)[C@H](C)NC(=O)[C@@H](NC(=O)OCc1ccccc1)C(C)C)C(=O)CF [zVAD-fmk] (Cbz-Val-Ala-Asp(OMe)-CH2F),effect on apoptosis induced by combined use of OBP-801 and PI3K inhibitor,"HEC-1-A cells [4]; HEC-1-A cells, pan-caspase inhibitor added",almost completely suppressed
same,effect on apoptosis induced by combined treatment with OBP-801 and LY294002,"786-O cells [1]; 786-O cells, pan-caspase inhibitor added",effectively suppressed the apoptosis
spiruchostatin A [OBP-801],concentrations causing inhibition of cell growth,HEC-1-A cells [2]; OBP-801 alone,≥ 0.0031 µM
same,concentrations causing increase of acetylated histone H4,acetylated histone H4,≥ 1.6 nM
same,number of colonies formed,"HEC-1-A cells [3]; OBP-801 alone at 4 nM, 48 hours treatment, 10 days culture",60%
same,effect on tumor cell cycle progression,HEC-1-A cells [4],G2/M-phase arrest
same,growth of 786-O cells,786-O cells [5],suppressed growth of 786-O cells or ACHN cells in concentration-dependent fashion
same,growth of ACHN cells,ACHN cells,suppressed growth of 786-O cells or ACHN cells in concentration-dependent fashion
same,growth of Ishikawa cells,Ishikawa cells,suppressed growth of Ishikawa cells in concentration-dependent fashion
same,"induction of apoptosis (sub-G1), treatment alone",786-O cells [1]; 786-O cells,only slight induction of apoptosis
same,"cleavage of caspase-3, caspase-8 and caspase-9",[6],did not induce cleavage of the foregoing caspases
